Experimental data published in patent US20250051395A1, “PEPTIDES AND METHODS FOR USE IN TREATING PAIN” (TAFALGIE THERAPEUTICS, priority 2021, published 2025).

Experiments:
[1] = test system: carrageenan model (inflammatory pain), C57Bl6 mice; assay: Carrageenan injection inflammatory pain model, Von Frey paw withdrawal threshold; assay type: in vivo; details: celecoxib subcutaneous, 20 mg/kg
Protocol: Inventors injected 20 μl of 1% λ-carrageenan (Sigma-Aldrich, 22049-5G-F) in 1×PBS into the plantar surface of the left hind paw of the mouse with a Hamilton syringe. The carrageenan injection was used as an inflammatory pain model.
(§1) The Von Frey's uses Von Frey (VF) hair or fibers, which are small pieces of nylon rod, approximately 50 mm in length to test a rodent's sensitivity to a mechanical stimulus. In this test, the animal stands on an elevated mesh platform, and the Von Frey hairs are inserted through the mesh to poke the animal's hindpaw. Normal reactions for the animal include withdrawing or licking or shaking the paw. The “up-down” Von Frey method is used to determine the mechanical force required to elicit a paw withdrawal response in 50% of animals. Here, mice were placed in plastic chambers on a wire mesh grid and stimulated with von Frey filaments (Bioseb) by the “up-down” method (45) starting with a 1 g filament, and using 0.04 and 4 g filaments as the cutoffs.
The experiments were conducted on eight-week-old male WT C57Bl6. Three groups of 8 mice were used.
As previously described, measurement with Von Frey filaments by the up/down method for determining the baseline was done. Then, an intraplantar injection of 20 μl of carrageenan (1%) was performed into a hind paw. […] Celecoxib is a well-known drug used as positive control.

[2] = test system: paw incision model (postoperative pain), C57Bl6 mice; assay: Paw incision (Brennan) postoperative pain model, Von Frey paw withdrawal threshold, curative treatment; assay type: in vivo; details: morphine oral, 1 mg/kg, D1 after paw incision
Protocol: Mice were anesthetized with ketamine (100 mg/kg IP) and xylazine (10 mg/kg IP) and a longitudinal incision was made through the skin and fascia of the right hind paw. Forceps were used to elevate the flexor digitorum brevis muscle longitudinally and an incision was made through the muscle with a scalpel, to cut it into two halves. The wound was closed with sutures, and the animals were allowed to recover and returned to their cages. The paw incision was used as postoperative pain model.
as §1
The experiments were conducted on eight-week-old male WT C57Bl6. Three groups of 8 mice were used. […]

[3] = test system: Spared Nerve Injury (SNI) model, C57Bl6 mice; assay: Spared Nerve Injury (SNI) model of neuropathic pain, Von Frey up-down paw withdrawal threshold; assay type: in vivo; details: for antalgic effect when administered orally: per os, 7 days after surgery, vs vehicle (FIG. 5)
Protocol: Mice were anesthetized with ketamine (100 mg/kg IP) and xylazine (10 mg/kg IP) and the left sciatic nerve was exposed under aseptic conditions. The distal trifurcation of the sciatic nerve was identified and the tibial and common peroneal branches were ligated with polypropylene nonabsorbable 6-0 sutures (Ethicon); 1 mm was cut out, leaving the sural branch intact. The wound was closed with sutures, and the animals were allowed to recover and returned to their cages.
as §1
The experiments were conducted on eight-week-old male WT C57Bl6 mice. Three groups of 8 mice were used. Peptide of SEQ ID NO: 1 is resuspended in 0.9% NaCl at [0.6 mg/mL]. The peptide was diluted and used at a concentration of 0.3 mg/kg in this study.
After having measured the base threshold of mice with Von Frey (VF) filaments by the up/down method, the SNI model is set into place. The mice are anesthetized, ligature of the tibial nerve and of the fibular nerve is put into practice and these two nerves are then severed. The sural nerve left intact develops neuropathy quite rapidly. The occurrence of neuropathy is ascertained after 3 days post-surgery. A decrease in the response threshold to Von Frey filaments of the ipsilateral paw is thereby observed.
7 days after surgery, the response threshold is again measured. 100 μl/10 g of each of the peptide solutions, of vehicle and pregabalin solution are then blind-injected subcutaneously for the experimenter.
The same protocol was used as described in 1.1 except that the administration of the peptide, vehicle and pregabalin was done 14 days after surgery using per os administration for the peptide and vehicle.
For per os administration, the peptide of SEQ ID NO: 1 was diluted at a concentration of 30 μg/mL in a solution of 1% w/v Hydroxypropylmethylcellulose (Sigma-aldrich #423238, batch MKCD3665), 0.5% v/v Tween 80 (Euromedex #2002-A, batch 100412/16S407), referred then after as HPMC solution (vehicle).
Vehicle and peptide solution were orally administered using two gavage needles. […]

[4] = test system: injury-induced mechanical hypersensitivity in mice; details: cited from earlier work
[5] = pregabalin 5 mg/kg by gavage, day 14 post-SNI

## Cc1ccc(-c2cc(C(F)(F)F)nn2-c2ccc(S(N)(=O)=O)cc2)cc1 [celecoxib]
[1]
  time of maximum antalgic effect: 2 h

## CN1CC[C@]23c4c5ccc(O)c4O[C@H]2[C@@H](O)C=C[C@H]3[C@H]1C5 [morphine]
[2]
  response threshold: increase in the response threshold

## CC(C)C[C@H](CN)CC(=O)O [pregabalin, reference compound]
[3]; [5]
  effect on mechanical threshold at 4 h post-administration: completely abolished
  time of maximum reversal effect on mechanical threshold: 2 h

## TAFA-4 full length protein: human TAFA-4 mature protein of 105 amino acid residues, secreted neurokine of the prior art
[4]; intrathecal and subcutaneous administration, male and female mice
  mechanical hypersensitivity (inflammatory, post-operative, nerve injury-induced): reverses inflammatory, post-operative and nerve injury-induced mechanical hypersensitivity
[4]; intrathecal injection, TAFA-4 gene deleted mice
  prolonged nerve injury-induced mechanical hypersensitivity of TAFA-4 gene deleted mice: reversed
[3]
  antalgic effect when administered orally: did not show significant antalgic effect
[3]; listed as TAFA4
  antalgic effect when administered orally: No statistical differences
